This is an account of results in patent US9919060B2 (University Court of the University of Dundee, priority 2009, dated 2018).

Series [1] deals with T1, CYP1B1 (Homo sapiens, UniProt Q16678).
T1 sequence (Q16678 1-543): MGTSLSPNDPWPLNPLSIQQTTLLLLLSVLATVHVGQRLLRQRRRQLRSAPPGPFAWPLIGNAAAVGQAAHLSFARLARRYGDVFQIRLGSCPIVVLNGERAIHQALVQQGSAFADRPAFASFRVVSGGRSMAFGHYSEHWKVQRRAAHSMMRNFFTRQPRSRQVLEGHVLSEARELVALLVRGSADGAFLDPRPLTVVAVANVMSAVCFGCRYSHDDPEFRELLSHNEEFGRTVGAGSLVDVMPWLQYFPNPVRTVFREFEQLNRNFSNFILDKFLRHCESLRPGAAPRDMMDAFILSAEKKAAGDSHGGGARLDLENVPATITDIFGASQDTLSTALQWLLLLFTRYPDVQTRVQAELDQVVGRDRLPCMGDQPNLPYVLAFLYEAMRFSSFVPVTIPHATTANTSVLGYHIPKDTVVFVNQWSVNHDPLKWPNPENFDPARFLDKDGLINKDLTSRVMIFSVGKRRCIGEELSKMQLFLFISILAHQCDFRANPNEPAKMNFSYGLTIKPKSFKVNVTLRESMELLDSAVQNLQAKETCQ
As to the kind of experiment: CYP1B1 substrate prediction model (Gaussian Kernel weighted k-NN).

In series [2] the target is T2, CYP1A1 (Homo sapiens, UniProt P04798).
T2 sequence (P04798 1-512): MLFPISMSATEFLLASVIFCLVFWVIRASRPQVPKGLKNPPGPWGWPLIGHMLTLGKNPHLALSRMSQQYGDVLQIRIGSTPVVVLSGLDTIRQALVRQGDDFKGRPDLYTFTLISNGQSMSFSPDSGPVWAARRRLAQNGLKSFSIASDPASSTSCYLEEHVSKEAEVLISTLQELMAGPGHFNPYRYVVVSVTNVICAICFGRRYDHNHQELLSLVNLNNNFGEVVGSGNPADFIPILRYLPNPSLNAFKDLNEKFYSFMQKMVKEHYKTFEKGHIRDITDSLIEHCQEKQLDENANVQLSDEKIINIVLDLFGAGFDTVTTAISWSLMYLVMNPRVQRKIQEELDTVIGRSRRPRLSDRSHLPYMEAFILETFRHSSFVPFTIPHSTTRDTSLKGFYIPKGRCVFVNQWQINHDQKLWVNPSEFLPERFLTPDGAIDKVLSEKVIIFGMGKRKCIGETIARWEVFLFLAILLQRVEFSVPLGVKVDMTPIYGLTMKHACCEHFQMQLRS
It counts as cell-based. The following applies: TMS 10 nmol dm^−3; without inhibitor 29 ± 4. Here is the method:
(§1) Dihydrofolate reductase (DHFR) gene amplification of either human cDNA CYP1A1 or cDNA CYP1B1 in CHO cells was used to achieve high levels of functional enzyme when co-expressed with human P450 reductase (ibid.; Ding S, et al., Biochem J., 356(Pt 2): 613-9, 2001). […] The resulting cell lines were analysed for CYP1A1 or CYP1B1 expression by immunoblotting. […]
(§2) The ethoxyresorufin O-deethylation (EROD) assay is widely used to confirm functional CYP1 activity (Chang T K and Waxman D J, “Enzymatic Analysis of cDNA-Expressed Human CYP1A1, CYP1A2, and CYP1B1 with 7-Ethoxyresorufin as Substrate”, Methods Mol. Biol., 320: 85-90, 2006, the contents of which are incorporated herein by reference). The assay determines O-dealkylation of 7-ethoxyresorufin by CYP1A1, CYP1A2, and CYP1B1 to generate the enzymatic product resorufin, which is monitored continuously by fluorescence emission at 580 nm. […]

In series [3] the target is T2, CYP1A1. The following applies: TMS 10 nmol dm^−3; without inhibitor 21 ± 3.
The target of series [4] is T3, CYP1A2 (Homo sapiens, UniProt P05177).
T3 construct: purchased BD Gentest, Oxford, UK
T3 sequence (P05177 2-516 limits assumed): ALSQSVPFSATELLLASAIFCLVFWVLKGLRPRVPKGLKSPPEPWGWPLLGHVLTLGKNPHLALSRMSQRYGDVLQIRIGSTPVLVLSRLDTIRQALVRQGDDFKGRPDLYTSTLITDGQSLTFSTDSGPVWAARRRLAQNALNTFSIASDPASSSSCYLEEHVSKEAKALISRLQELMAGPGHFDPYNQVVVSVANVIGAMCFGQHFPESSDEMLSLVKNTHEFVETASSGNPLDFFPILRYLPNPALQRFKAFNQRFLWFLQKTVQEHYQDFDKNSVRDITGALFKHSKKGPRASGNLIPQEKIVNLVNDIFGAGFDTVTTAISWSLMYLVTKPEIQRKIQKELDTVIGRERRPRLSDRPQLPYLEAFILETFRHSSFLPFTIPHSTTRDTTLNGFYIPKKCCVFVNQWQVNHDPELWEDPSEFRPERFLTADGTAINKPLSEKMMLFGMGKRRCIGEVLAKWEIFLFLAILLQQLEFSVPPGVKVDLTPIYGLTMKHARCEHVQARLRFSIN
Nature of the series: Fragmentation of benzofuran ether and carbamate linked coumarins by Supersomal CYP1A2 (coumarin anion release, kinetic fluorimetry). It counts as biochemical. To be noted: 10 pmol enzyme, 10 μmol dm^−3 prodrug, NADPH, pH 7.4, 37° C., mean ± standard deviation of three measurements.
Procedure: (§3) Supersomal™ enzyme metabolism was started by adding a stock solution of prodrug dissolved in DMSO to give a final concentration of 10 μmol dm^−3 prodrug and 0.5% DMSO. HLM screening used 60 microliter microsomes, 100 μmol dm^−3 NADPH, in 10 mmol dm^−3 potassium phosphate buffer at pH 7.4 and 37 OC, in 1.5 ml total reaction volume.
(§4) Therefore, enzymatic hydroxylation of the hetero-aromatic trigger and resultant linker fragmentation can be monitored in real time by release of the coumarin anion by kinetic fluorimetry.
(§5) Release of the coumarin anion indicative of linker fragmentation was monitored using a 1 cm path length fluorescence cell in a Cary Eclipse kinetic flourimeter with excitation and emission slits set at 5 nm. Coumarin anion release from compounds of the invention was detected at the excitation wavelength λex=350·nm and the emission wavelength λem=450 nm. Change in fluorescence intensity was quantified against a linear calibration plot of fluorescence intensity versus coumarin concentration (0 to 3.5 μmol dm^−3) in 10 mmol dm^−3 potassium phosphate buffer at pH 7.4 using the same instrument settings as for enzyme metabolism.

For series [5], the target named is T2, CYP1A1. As to the kind of experiment: Fragmentation of benzofuran ether and carbamate linked coumarins by Supersomal CYP1A1 (coumarin anion release, kinetic fluorimetry). To be noted: 10 pmol enzyme, 10 μmol dm^−3 prodrug, NADPH, pH 7.4, 37° C., mean ± standard deviation of three measurements. More on the design: purchased BD Gentest, Oxford, UK. It counts as biochemical.
Procedure: as §3, §4, §5

Series [6] deals with T1, CYP1B1. Nature of the series: Fragmentation of benzofuran ether and carbamate linked coumarins by Supersomal CYP1B1 (coumarin anion release, kinetic fluorimetry). Type of series: biochemical. Also noted: purchased BD Gentest, Oxford, UK. To be noted: 10 pmol enzyme, 10 μmol dm^−3 prodrug, NADPH, pH 7.4, 37° C., mean ± standard deviation of three measurements.
Procedure: as §3, §4, §5
For series [7], the system named is human liver microsomes (HLM). As to the kind of experiment: Fragmentation of benzofuran ether and carbamate linked coumarins by pooled human liver microsomes (coumarin anion release). To be noted: 60 μl HLM in 1.5 ml final reaction volume, NADPH, pH 7.4, mean ± standard deviation of three measurements.
Procedure: as §3, §4, §5
The subject of series [8] is wild-type CHO cells.
Substrate in series [9]: CCOc1ccc2nc3ccc(=O)cc-3oc2c1
Type of series: cell-based, human. To be noted: other: fluorogenic substrate. Here is the method:
as §1, §2

“Also recorded” adds a separate entry of the source.

In the case of `COc1cc(/C=C/c2ccc(OC)cc2OC)cc(OC)c1` [tetramethoxystilbene], the “% CYP1B1 substrate inhibition, accuracy (predicted versus actual)” value in series [1] was 98%. For the same molecule, the “Specific activity, CHO/CYP1A1, ethoxyresorufin” value in [2] is given as 26 ± 4 pmol resorufin or luciferin min^−1 mg protein^−1. The “Specific activity, CHO/CYP1A1, Luciferin-CEE” value in series [3] was 20 ± 5 pmol resorufin or luciferin min^−1 mg protein^−1.

Turning to `Cc1cc(=O)oc2cc(NC(=O)OCc3cc4cc(Br)ccc4o3)ccc12` [VG036-05, (5-bromobenzofuran-2-yl)methyl 4-methyl-2-oxo-2H-chromen-7-ylcarbamate], in series [4], the “Specific fragmentation activity, CYP1A2” value was “no release”. The “Specific fragmentation activity, CYP1A1” value in [5] is listed as “no release”. In addition, the “Specific fragmentation activity, CYP1B1” value in [6] is “no release”. In series [7], the “Specific fragmentation activity, HLM” value is reported as “no release”.

Regarding `COc1cc(OC)c2oc(COc3ccc4c(C)cc(=O)oc4c3)cc2c1` [VG035-05, 7-((5,7-dimethoxybenzofuran-2-yl)methoxy)-4-methyl-2H-chromen-2-one], in series [4], the “Specific fragmentation activity, CYP1A2” value is on record as “no linker fragmentation; also recorded: no release”. In addition, the “% CYP1B1 substrate inhibition, accuracy (predicted versus actual)” value in series [1] is on record as 96%. Moreover, the “Specific fragmentation activity, CYP1A1” value in series [5] is “no linker fragmentation; also recorded: no release”. In addition, the “Specific fragmentation activity, HLM” value in [7] is reported as “no linker fragmentation; also recorded: no release”.

On to `Cc1cc(=O)oc2cc(OCc3cc4ccccc4o3)ccc12` [SU010A, 7-(benzofuran-2-ylmethoxy)-4-methyl-2H-chromen-2-one], for which the “Specific fragmentation activity, CYP1A2” value in [4] (listed as SU10A) was “fragmented”. The “Specific fragmentation activity, CYP1A1” value in series [5] (listed as SU10A) is “fragmented”. Also, the “Specific fragmentation activity, CYP1B1” value in series [6] (listed as SU10A) is “fragmented”. Moreover, the “Specific fragmentation activity, HLM” value in series [7] (listed as SU10A) is “fragmented”.

Turning to `Cc1cc(=O)oc2cc(OCc3cc4cc(F)cc(F)c4o3)ccc12` [VG016-05, 7-((5,7-difluorobenzofuran-2-yl)methoxy)-4-methyl-2H-chromen-2-one], the “Specific fragmentation activity, CYP1A2” value in [4] was “no release”. The “% CYP1B1 substrate inhibition, accuracy (predicted versus actual)” value in series [1] was 82%. For the same molecule, the “Specific fragmentation activity, CYP1A1” value in series [5] is recorded as “no release”. Moreover, the “Specific fragmentation activity, CYP1B1” value in series [6] was “no fragmentation of the linker; also recorded: no release”; in [6] (listed as VG016-04), “inhibits CYP1 isoenzyme and HLM-induced fragmentation”. Also, in series [7], the “Specific fragmentation activity, HLM” value is “no release”.

With `O=P1(N(CCCl)CCCl)NCCCO1` (stereo not drawn) [cyclophosphamide], the “Toxicity in the CHO cytotoxicity assay at highest concentration” value in [8] is “non-toxic”.

B1: CYP1A1 (Homo sapiens) (protein)
chain: T2 sequence (P04798 1-512)
As for B1, the Km entry in series [9] is “Ethoxyresorufin for CYP1A1and CYP1B1 Km ~0.27 μmol dm^−3 μmol dm^−3”.

B2: CYP1B1 (Homo sapiens) (protein)
chain: T1 sequence (Q16678 1-543)
Regarding B2, the Km entry in series [9] is given as “Ethoxyresorufin for CYP1A1and CYP1B1 Km ~0.27 μmol dm^−3 μmol dm^−3”.
